In patent US8501783B2, “Conformationally restricted urea inhibitors of soluble epoxide hydrolase” (The Regents of the University of California, priority 2006, dated 2013):

Columns and labels:
[1] = Solubility in oil of the dosing preparation (compound in Crisco); type: physicochemical; conditions: appearance in oil, in parentheses after compound number
Source text: The dogs are fed immediately thereafter.

human sEH = human sEH (Homo sapiens (Human), UniProt P34913); assay: Inhibition of human soluble epoxide hydrolase (IC50; one of three substrate methods); type: biochemical; conditions: recombinant human sEH;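 also: enzyme expressed in baculovirus and affinity-purified, assays run in triplicate, with substrate and read-out differing among the three methods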
Chain of human sEH (P34913 whole entry): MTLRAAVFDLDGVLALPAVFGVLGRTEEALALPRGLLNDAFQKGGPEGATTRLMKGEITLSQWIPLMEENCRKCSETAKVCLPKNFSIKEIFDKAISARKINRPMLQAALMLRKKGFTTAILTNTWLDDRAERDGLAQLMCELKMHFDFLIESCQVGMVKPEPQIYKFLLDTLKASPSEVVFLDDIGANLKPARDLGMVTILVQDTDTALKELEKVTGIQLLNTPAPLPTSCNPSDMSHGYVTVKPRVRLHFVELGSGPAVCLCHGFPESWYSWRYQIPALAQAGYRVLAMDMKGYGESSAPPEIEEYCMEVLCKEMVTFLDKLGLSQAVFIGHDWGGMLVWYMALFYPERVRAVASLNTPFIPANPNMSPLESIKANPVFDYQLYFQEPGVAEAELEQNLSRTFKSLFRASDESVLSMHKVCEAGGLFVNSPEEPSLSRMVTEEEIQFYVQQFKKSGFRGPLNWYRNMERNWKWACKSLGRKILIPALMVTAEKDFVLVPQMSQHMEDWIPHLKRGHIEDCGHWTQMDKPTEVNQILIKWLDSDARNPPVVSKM

[2] = Pharmacokinetic screening in dogs, oral administration, plasma LC-MS/MS; conditions: for AUC: dog, plasma, po, 0.3 mg/kg; for AUCINF_D_pred / LC/MS analysis, plasma level at time 0 / LC/MS analysis, plasma level at time 15 / LC/MS analysis, plasma level at time 30 / LC/MS analysis, plasma level at time 60 / LC/MS analysis, plasma level at time 120 / LC/MS analysis, plasma level at time 180 / LC/MS analysis, plasma level at time 240 / LC/MS analysis, plasma level at time 300 / LC/MS analysis, plasma level at time 360 / LC/MS analysis, plasma level at time 480 / LC/MS analysis, plasma level at time 1440: dogs; for AUCINF_D_pred: oral, dose-normalised; for LC/MS analysis, plasma level at time 0 / LC/MS analysis, plasma level at time 15 / LC/MS analysis, plasma level at time 30 / LC/MS analysis, plasma level at time 60 / LC/MS analysis, plasma level at time 120 / LC/MS analysis, plasma level at time 180 / LC/MS analysis, plasma level at time 240 / LC/MS analysis, plasma level at time 300 / LC/MS analysis, plasma level at time 360 / LC/MS analysis, plasma level at time 480 / LC/MS analysis, plasma level at time 1440: single oral dose (0.3 mg/kg per FIG. 1); for LC/MS analysis, plasma level at time 0: time 0 min; for LC/MS analysis, plasma level at time 15: time 15 min; for LC/MS analysis, plasma level at time 30: time 30 min; for LC/MS analysis, plasma level at time 60: time 60 min; for LC/MS analysis, plasma level at time 120: time 120 min; for LC/MS analysis, plasma level at time 180: time 180 min; for LC/MS analysis, plasma level at time 240: time 240 min; for LC/MS analysis, plasma level at time 300: time 300 min; for LC/MS analysis, plasma level at time 360: time 360 min; for LC/MS analysis, plasma level at time 480: time 480 min; for LC/MS analysis, plasma level at time 1440: time 1440 min

SMILES	solubility in oil [1]	IC50 (human sEH)	AUC [2]	AUCINF_D_pred [2]	LC/MS analysis, plasma level at time 0 [2]	LC/MS analysis, plasma level at time 15 [2]	LC/MS analysis, plasma level at time 30 [2]	LC/MS analysis, plasma level at time 60 [2]	LC/MS analysis, plasma level at time 120 [2]	LC/MS analysis, plasma level at time 180 [2]	LC/MS analysis, plasma level at time 240 [2]	LC/MS analysis, plasma level at time 300 [2]	LC/MS analysis, plasma level at time 360 [2]	LC/MS analysis, plasma level at time 480 [2]	LC/MS analysis, plasma level at time 1440 [2]
O=C(NC1CCN(C(=O)c2ccccn2)CC1)NC12CC3CC(CC(C3)C1)C2 [Compound 1201, N-(1-(Pyridine-2-carbonyl)piperidin-4-yl)-N′-(adamant-1-yl)urea]	1201 (Suspension)	1.2 nM	0.08 µM·h	16100 kg·nM·min/mg	0.00	9.19	32.65	42.48	21.09	7.15	3.16	1.72	0.00	0.00	0.00
COC(=O)c1ccc(C(=O)N2CCC(NC(=O)NC34CC5CC(CC(C5)C3)C4)CC2)cc1 [Compound 1204, 4-[4-(3-Adamantan-1-yl-ureido)-piperidine-1-carbonyl]-benzoic acid methyl ester]	1204 (Opaque)	1.1 nM			0.00	0.00	0.19	0.34	0.11	0.00	0.00	0.00	0.00	0.00	0.00
COC(=O)CCCC(=O)N1CCC(NC(=O)NC23CC4CC(CC(C4)C2)C3)CC1 [Compound 1206, 5-[4-(3-Adamantan-1-yl-ureido)-piperidin-1-yl]-5-oxo-pentanoic acid methyl ester]	1206 (Opaque)	2.7 nM			0.00	0.00	0.00	0.00	0.00	0.00	0.00	0.00	0.00	0.00	0.00
CC(=O)N1CCC(NC(=O)Nc2ccc(OC(F)(F)F)cc2)CC1 [Compound 1555, 1-(1-Acetyl-piperidin-4-yl)-3-(4-trifluoromethoxy-phenyl)-urea]	1555 (Opaque)		6.5 µM·h	13002825 kg·nM·min/mg	0.00	16.07	45.76	100.35	216.91	260.79	268.90	302.64		320.45	266.29
O=C(NC1CCN(C(=O)C(F)(F)F)CC1)NC12CC3CC(CC(C3)C1)C2 [Compound 1606]	1606 (Suspension)		0.0433 µM·h	8553 kg·nM·min/mg	0.00	0.00	1.61	4.82	9.37	10.98	6.83	5.62	3.21	1.47	
